We go through 10 compounds from patent US7445891B2, “Nucleic acid triggered catalytic drug and probe release” (priority 2001, dated 2008).

Data set [1] is described as follows: Imidazole catalyzed hydrolysis of esters (imidazole alone). Format: physicochemical. As to conditions: 20° C.
Description: For comparison purposes, the rate constant kIm for the imidazole catalyzed hydrolysis of the various esters were determined in imidazole buffer at pH 7.0, 0.5 M NaCl at 20° C. as previously described. The imidazole buffers were prepared in 0.5 M NaCl, and adjusted to pH 7 by addition of 1 M HCl. […] The pseudo first-order rate constant for each concentration of imidazole was obtained by linear least squares fitting of In(A¥-A) or In(F¥-F) vs. time. The rate constants were then plotted against total imidazole concentration to get ko, the first order rate constant for the uncatalyzed hydrolysis reaction, and kIm, the second-order rate constant for catalysis by imidazole buffer.
The test system of a further data set is hairpin enzyme 3a. Nature of the data set: Two component hairpin system: p-nitrophenolate / 7-hydroxycoumarin release from 8-mer prodrugs. Format: biochemical. The note with it: for Enhancement: (kcat/KM)/kIm. As to the method: Initial velocities of the reaction, obtained for each substrate concentration, were fitted to the Michaelis-Menten equation by a non-linear least squares method using KaleidaGraph software. The inhibition constant KI was determined in the presence of 25 mM 7d ([…]) in 10 mM sodium phosphate buffer pH 7.0 containing 1.0 M NaCl by the plotting 1/v vs. 1/[S] and calculating KI from the slope of the line according following equation:
(§1) [formula] where v is the velocity of the reaction, Vmax is the maximum velocity, KM is the substrate concentration at half maximal reaction rate, [I] is the inhibitor concentration, and [S] is the substrate concentration. Kinetics of p-nitrophenol and 7-hydroxycoumarin Release by Imidazole Alone

A further data set relates to imidazole hairpin 3a. The experiment in a line: Fluorescein release from fluorescein dipivalate ODNs by imidazole hairpin. Format: biochemical. As to conditions: 10 mM ODN, 5 mM hairpin 3a, 0.1 M phosphate pH 7.0, 20° C.; relative to 7a. From the text:
FIG. 11. […] For comparison, the release of fluorescein from the fluorescein tetramer 7aby imidazole at 0.1 M imidazole alone is also shown.
Because of the strong fluorescence and widespread use of fluorescein as a fluorescent probe, the rate of fluorescein release by imidazole catalyzed hydrolysis of diacetyl fluorescein was investigated. Diacetylated fluoresceins are non-fluorescent, but upon hydrolysis of the acyl groups become highly fluorescent. Attempts to attach the N-hydroxysuccinimide derivative of diacetylcarboxyfluorescein via amide bond formation with the 3′-amino linked oligodeoxynucleotide 5 (FIG. 4) failed due to the high pH required for the reaction which led to the premature hydrolysis of the acetate groups. Attempts to conjugate 5-chloromethyl fluorescein diacetate with a 3′-phosphorothioate labeled ODN also failed at pH 7. […] The TMs of 7a-cwere estimated from thermodynamic parameters to be -20, 19, and 41° C. under the conditions of the experiment and have equilibrium dissociation constants of 3.4 mM, 8.1 mM, and 14 nM.

The conditions of data set [2]: 1 M NaCl; cited from earlier work.
The nature of data set [3]: Hydrolysis of esters in human serum.
Description: In a typical run, 3 mL of coumarin ester solution (7 mM in acetonitrile) was added to 400 mL of Human serum, pH 8.3 (Innovative Research Inc.) in cuvette. The cuvette was capped, inverted several times for thorough mixing, placed in a cell block and recording was begun.
Data set [4] relates to 15-mer catalytic component 3b and 23-mer template 4. Nature of the data set: Three component system: release from 8-mer prodrug with imidazole 15-mer and triggering 23-mer. The data set is classed as biochemical. The protocol:
For typical assays, pNP-8-mer 1 (SEQ ID NO:1) and Im-15-mer 2 were incubated in 10 mM sodium phosphate, pH 7.0, which contained 0.1 M or 1.0 M NaCl in an ultra-micro ([…]) UV cell (Varian). The reaction temperature was maintained at 20° C., and the production of p-nitrophenolate was monitored by UV absorbance at 400 nm (e400=6.26′10^3). Initial velocities of the reaction, obtained for each substrate concentration, were fitted to the Michaelis-Menten equation by a non-linear least squares method with KaleidaGraph software. The inhibition constant KI was determined in the presence of 20 mM d([…]) in 10 mM sodium phosphate buffer pH 7.0 containing 1.0 M NaCl by the plotting 1/v vs. 1/[S] and calculating KI from the slope of the line according following equation:
[formula] where v is the velocity of the reaction, Vmax is the maximum velocity, KM is the substrate concentration at half maximal reaction rate, [I] is the inhibitor concentration, and [S] is the substrate concentration. For comparison purposes, the reaction rate constant kIm for the imidazole catalyzed hydrolysis of N-maleoyl-D-valine p-nitrophenyl ester 8 was determined in imidazole buffer at pH 7.0, 1.0 M NaCl at 20° C. as previously described. […]
as §1

The test system of another data set is E. coil 5S rRNA. Nature of the data set: Hydroxycoumarin release from PNA constructs on 5S rRNA trigger. Format: biochemical, E. coli. As to conditions: unoptimized test. From the text:
FIG. 16. A series of PNA constructs was synthesized to target one of the hairpin loops of commercially available E. coil 5S rRNA (SEQ ID NO:11) as the nucleic acid trigger. This rRNA has been thoroughly characterized by enzymatic and chemical probes, and is therefore a suitable initial model for studying and optimizing various catalytic drug releasing motifs in folded […].
FIG. 19. […] In contrast, there was no difference in the rate of release of hydroxycoumarin from the 6-mer conjugate in the presence or absence of the histidine, or the catalytic component. (not shown).

For `CC(C)[C@H](C(=O)Oc1ccc([N+](=O)[O-])cc1)N1C(=O)C=CC1=O` [11a, N-maleoyl-D-valine p-nitrophenyl ester], the kIm in data set [1] (imidazole buffer pH 7.0, 1.0 M NaCl) is 0.014 M⁻¹ s⁻¹.

Consider “15a (SEQ ID NO:10) (X=C): mismatched b-alanine p-nitrophenyl ester 8-mer prodrug, G to C transversion (DNA TCCTNTCA; b-alanine p-nitrophenyl ester prodrug, chemistry not fully specified)”, for which the “difference in initial rates of p-nitrophenolate release, matched 15a (X=G) vs single CC mismatch” value with hairpin enzyme 3a (1 M NaCl) is recorded as 11 fold. In addition, the “increase in Kd of mismatch substrate needed to account for rate difference” value with hairpin enzyme 3a (rates proportional to (Kd+[S])^−1) was 15 fold.

For “7c: 8-mer ODN derivatized with bis-pivaloyl fluorescein (SEQ ID NO:9) (TCCTGTCA; DNA, backbone not given here; further chemistry not fully specified)”, in the data set on imidazole hairpin 3a, the “relative initial rates of fluorescein release” value was determined as 493.

For the compound “7a: 4-mer ODN derivatized with bis-pivaloyl fluorescein (SEQ ID NO:7) (GTCA; DNA, backbone not given here; further chemistry not fully specified)”, the “relative initial rates of fluorescein release” value in the data set on imidazole hairpin 3a is listed as 1.

As to `CC(=O)Oc1ccc([N+](=O)[O-])cc1` [p-nitrophenylacetate, reference compound], in data set [1] (imidazole catalyzed rate constant, pH 7, 0.5 M NaCl), the klm came out at 0.13 M⁻¹ s⁻¹.

On to “d(GGAGCTTGCTCC): hairpin ODN of the literature (SEQ ID NO:18) (DNA, backbone not given here; hairpin)”, for which the TM reported in data set [2] was 71 °C.

Take N-maleoyl-b-alanine-coumarin ester [9c]: the “stability to hydrolysis by human serum, compared” value in data set [3] is on record as “more stable than the CBZ-glycine ester, but much less stable than the maleoyl-D-valine esters”.

For “16a: D-valine p-nitrophenyl ester linked to the 3'-end of 8-mer ODN d(TCCTGTCA) (DNA, backbone not given here; further chemistry not fully specified)”, the “drop in kcat relative to b-alanine ester 15a” value in the data set on hairpin enzyme 3a (1.0 M NaCl) came out at 8.3 fold. Further, the Enhancement in the data set on hairpin enzyme 3a (1.0 M NaCl) is given as 429; in data set [4] ((kcat/KM)/kIm, 1.0 M NaCl), 974. The “p-nitrophenol formed during the course of the reaction” value in data set [4] (5 mM catalytic ODN and 5 mM triggering ODN) is reported as “about 15 mM”. In data set [4] (0.1 M NaCl, 20° C.), the “release more efficient with fully matched than mismatched template” value is 7.5 fold. The “difference in rate, matched vs mismatched template” value in data set [4] (1 M NaCl) worked out at 1.4 fold. The Vmax in data set [4] (1 M NaCl, pH 7, 20° C.) was found to be 0.09 mM/min. Besides, in data set [4] (1 M NaCl, pH 7, 20° C.), the kcat amounted to 0.0003 s⁻¹. Besides, the “initial rate of p-nitrophenol release” value in data set [4] (15-mer lacking an appended imidazole group, 1 M NaCl, pH 7, 20° C.) was determined as 0.0008 mM/min; in data set [4] (absence of the 23-mer or Im-15-mer, 1 M NaCl, pH 7, 20° C.), 0.002 mM/min; in data set [4] (all three components, 1 M NaCl, pH 7, 20° C.), 0.057 mM/min. For the same compound, in data set [4] ((kcat/KM)/kIm), the “rate acceleration over hydrolysis catalyzed by free imidazole” value is 976 fold. For the same compound, the “initial rate of release of p-nitrophenol” value in data set [4] (fully matched 23-mer, 0.1 M NaCl, 20° C.) is 0.028 mM/min; in data set [4] (mismatched 23-mer (T at position 20 replaced with C), 0.1 M NaCl, 20° C.), 0.0037 mM/min.

“8-mer PNA construct: hydroxycoumarin-bearing 8-mer PNA (SEQ ID NO:15) targeting E. coli 5S rRNA hairpin loop (CTGGGGTA; all peptide nucleic acid (PNA); hydroxycoumarin attached, position not given here)”: in the data set on E. coil 5S rRNA, the “rate of hydroxycoumarin release, all three components vs absence of the entire catalytic PNA” value turned out to be 4 fold and the “rate of hydroxycoumarin release, all three components vs all three minus the histidine” value is on record as 2 fold.

Consider “15a (X = G): matched b-alanine p-nitrophenyl ester 8-mer ODN prodrug (SEQ ID NO:10) (TCCTNTCA; beta-alanine p-nitrophenyl ester prodrug, chemistry not fully specified)”, for which the “time in which four turnovers are complete” value in the data set on hairpin enzyme 3a (20 mM prodrug, 5 mM hairpin 3a, 1 M NaCl, pH 7, 20° C.) was “about 4 h”. Besides, the kcat in the data set on hairpin enzyme 3a (1.0 M NaCl, 10 mM phosphate buffer pH 7.0, 20° C., listed as 15a) is 0.0029 s⁻¹. Besides, the Enhancement turned out to be 281 in the data set with hairpin enzyme 3a (0.1 M NaCl) and 446 in the data set with hairpin enzyme 3a (1.0 M NaCl). The “koff needed to account for observed KM” value in the data set on hairpin enzyme 3a (assuming on rate 10^6 M^−1s^−1) is 50 s⁻¹. Also, the “rate enhancement of ester hydrolysis relative to imidazole alone” value in the data set on hairpin enzyme 3a (kcat/KM compared with kIm) is listed as 446 fold.
